Measurements taken from patent US5880157A, “Derivatives of tetramethylcyclopropane” (Yissum Research Development Company of the Hebrew …, priority 1994, dated 1999).

Columns and labels:
[1] = tested on: maximal electroshock seizure (MES); assay: maximal electroshock seizure (MES) test, mice; conditions: for ED50: Mus musculus, read-out: MES ED50; for MES PI (protective index, TD50/ED50) / effective dose in the MES test (ED50) compared with Valproic Acid: mice; for effective dose in the MES test (ED50) compared with Valproic Acid: in words
From the text: (§1) All compounds described before were screened for their ability to protect against seizures in two different models of epilepsy: the maximal electroshock seizure (MES) model; and the subcutaneous pentylenetetrazol (Metrazol) seizure threshold (s.c.Met) test. Agents effective in the MES model have been correlated with the ability to prevent the seizure spread, whereas those agents effective in the s.c. Met model have been correlated with the ability to raise the threshold for excitation of neural tissue. The PI value, the protective index, is calculated as described below.
(§2) The MES test is the most commonly used test to assess activity against these types of seizures.

[2] = tested on: subcutaneous pentylenetetrazol (Metrazol) seizure threshold; assay: subcutaneous pentylenetetrazol (Metrazol) seizure threshold (s.c. Met) test, rats; conditions: for ED50: Rattus norvegicus, sc, read-out: scMet ED50; for scMet PI (protective index, TD50/ED50): rats
From the text: as §1, §2

[3] = tested on: subcutaneous pentylenetetrazol (Metrazol) seizure threshold; assay: subcutaneous pentylenetetrazol (Metrazol) seizure threshold (s.c. Met) test, mice; conditions: for ED50: Mus musculus, sc, read-out: scMet ED50; for scMet PI (protective index, TD50/ED50): mice; for effective doses in the s.c. Met test compared with VPA or ETS: mouse model, in words
From the text: as §1, §2

[4] = tested on: maximal electroshock seizure (MES); assay: maximal electroshock seizure (MES) test, rats; conditions: for ED50: Rattus norvegicus, read-out: MES ED50; for MES PI (protective index, TD50/ED50) / effective dose in the MES test (ED50) compared with Valproic Acid: rats; for effective dose in the MES test (ED50) compared with Valproic Acid: in words
From the text: as §1, §2

[5] = neurotoxicity, rotorod ataxia test, mice (i.p.); type: in vivo, mouse
Method: (§3) Neurotoxicity of the described compounds was assessed in mice (i.p. administration) by the rotorod ataxia test (See Swinyard et al., Supra, pages 85-100), and also in some cases in rats (p.o. administration) by the positional sense test and gait and stance test (see Swinyard above) .

[6] = neurotoxicity, positional sense test and gait and stance test, rats (p.o.); type: in vivo, rat
Method: as §3

[7] = in words; literature; cited from earlier work

Structure (SMILES)	ED50 [1] [mg/kg]	MES PI (protective index, TD50/ED50) [1]	effective dose in the MES test (ED50) compared with Valproic Acid [1]	ED50 [2] [mg/kg]	ED50 [3] [mg/kg]	scMet PI (protective index, TD50/ED50) [3]	effective doses in the s.c. Met test compared with VPA or ETS [3]	ED50 [4] [mg/kg]	MES PI (protective index, TD50/ED50) [4]	effective dose in the MES test (ED50) compared with Valproic Acid [4]	TD50 (median neurological toxic dose) [5] [mg/kg]	TD50 ([6]; rat, po, read-out: TD50 (median neurological toxic dose)) [mg/kg]	adverse side effects [7]	scMet PI (protective index, TD50/ED50) [2]	TD50 ([5]; mouse, ip, read-out: TD50 (median neurological toxic dose)) [mg/kg]	TD50 (median neurological toxic dose) [6] [mg/kg]
CC1(C)C(C(=O)NCC(N)=O)C1(C)C [Compound 2, N-[(2,2,3,3-Tetramethylcyclopropyl)carbonyl]-glycinamide]	173	1.5	lower effective dose in the MES test	> 250	115	2.3	lower than that found for either VPA or ETS	82	> 6.1	lower effective dose in the MES test	259	> 500	–	–	–	–
CCCC(CCC)C(=O)O [Valproic Acid, reference compound]	–	–	–	180	149	–	–	490	–	–	–	–	considerable adverse side effects including hepatoxicity and teratogenicity	–	–	–
CCC1(C)CC(=O)NC1=O (stereo not shown) [ETS, Ethosuximide, reference compound]	> 1000	–	–	54	130	–	–	> 1200	–	–	441	–	–	–	–	–
CNC(=O)C1C(C)(C)C1(C)C [Compound 1, N-Methyl-2,2,3,3-tetramethylcyclopropanecarboxamide]	98	0.8	lower effective dose in the MES test	45	39	2.1	lower than that found for either VPA or ETS	82	2.0	lower effective dose in the MES test	–	–	–	3.6	83	163
CC1(C)C(C(N)=O)C1(C)C [Compound 3, 2,2,3,3-Tetramethylcyclopropanecarboxamide]	> 120	–	–	52	57	1.7	lower than that found for either VPA or ETS	> 250	–	–	99	–	–	7.3	–	381
